Reference: article PMC10992250, “Enzymatic synthesis of high-titer nicotinamide mononucleotide with a new nicotinamide riboside kinase and an efficient ATP regeneration system” (Bioresources and Bioprocessing, 2022)

What was measured:
Gbst-AcK = target: T1, Gbst-AcK (Geobacillus stearothermophilus, UniProt A0ACH1E729); assay: HPLC of ATP formation; type: biochemical; settings: […] ADP, […] AcP, […] MgCl2, […] KPB pH […] °C
T1 construct: gene ackA; codon-optimised gene in pET21a (NdeI/XhoI, no stop codon; C-terminal vector His tag), E. coli BL21(DE3), Ni column
T1 sequence (A0ACH1E729 1-396): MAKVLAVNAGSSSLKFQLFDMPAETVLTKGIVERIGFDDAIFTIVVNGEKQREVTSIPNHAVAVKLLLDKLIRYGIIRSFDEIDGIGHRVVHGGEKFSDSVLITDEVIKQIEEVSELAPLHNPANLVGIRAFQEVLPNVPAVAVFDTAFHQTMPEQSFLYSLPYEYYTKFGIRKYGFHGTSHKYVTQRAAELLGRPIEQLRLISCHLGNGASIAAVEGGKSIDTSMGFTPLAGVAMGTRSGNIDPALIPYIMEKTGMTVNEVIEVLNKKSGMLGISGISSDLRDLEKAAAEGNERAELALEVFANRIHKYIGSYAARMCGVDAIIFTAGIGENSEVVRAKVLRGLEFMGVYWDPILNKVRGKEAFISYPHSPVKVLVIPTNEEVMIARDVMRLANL

[1] = tested on: T2, Nc1ncnc2c1ncn2[C@@H]1O[C@H](COP(=O)(O)OP(=O)(O)OP(=O)(O)O)[C@@H](O)[C@H]1O; assay: purified protein; type: biochemical, Kluyveromyces marxianus; settings: apparent, 0.5 mM NR, 12 mM MgCl2, 50 mM Tris-HCl pH 7.5, 50 mM NaCl, 50 mM KCl, 0.01% BSA, 30 °C
T2 construct: codon-optimised gene in pET21a (NdeI/XhoI, no stop codon; C-terminal vector His tag), E. coli BL21(DE3), Ni column; about 27 kDa

[2] = tested on: T3, NC(=O)c1ccc[n+]([C@@H]2O[C@H](CO)[C@@H](O)[C@H]2O)c1; assay: purified protein; type: biochemical, Kluyveromyces marxianus; settings: apparent, 0.5 mM ATP, 12 mM MgCl2, 50 mM Tris-HCl pH 7.5, 50 mM NaCl, 50 mM KCl, 0.01% BSA, 30 °C
T3 construct: codon-optimised gene in pET21a (NdeI/XhoI, no stop codon; C-terminal vector His tag), E. coli BL21(DE3), Ni column; about 27 kDa

Row | Compound | HPLC of ATP formation (Gbst-AcK) | Km [1] | Km [2]
1 | Nc1ncnc2c1ncn2[C@@H]1O[C@H](COP(=O)(O)OP(=O)(O)O)[C@@H](O)[C@H]1O [ADP] | assayed as the generation of ATP from ADP with a sufficient amount of AcP | – | –
2 | CC(=O)OP(=O)(O)O [AcP] | assayed as the generation of ATP from ADP with a sufficient amount of AcP | – | –
3 | Klm-NRK (Kluyveromyces marxianus DMKU3-1042) | – | 70 ± 6 µM | 45 ± 11 µM
